Reference: ChEMBL document CHEMBL1150949, “Antimalarial principles from Artemisia indica” (J Nat Prod, 1998)
pEC50: −log10 of the molar value.

What follows are compounds tested on Plasmodium falciparum (assay: Antimalarial activity against Plasmodium falciparum K1 by [3H]hypoxanthine uptake).
Type: functional, organism-based
Compound `Oc1ccc(-c2cc3cc4c(cc3o2)OCO4)c(O)c1` has a pEC50 of 4.00.
Compound `Oc1ccc2c(c1)OC[C@@H]1c3cc4c(cc3O[C@H]21)OCO4` [(+)-MAACKIAIN] has a pEC50 of 3.78.
`COc1c(Cc2ccccc2O)c(O)c(Cc2ccccc2O)c(O)c1C(=O)CCc1ccccc1` [DIUVARETIN] showed an EC50 of 4.2 µg/mL.
`C=C(C)[C@H](CC=C(C)C)Cc1c(O)cc(O)c2c1O[C@H](c1c(O)cccc1O)CC2=O` [EXIGUAFLAVONE A] was tested, and the pEC50 was 4.97.
In the case of `C=C(C)[C@H](CC=C(C)C)Cc1c(OC)cc(O)c2c1O[C@H](c1c(O)cccc1O)CC2=O` [EXIGUAFLAVONE B], the pEC50 was 4.80.
`COc1cc(O)c(Cc2ccccc2O)c(O)c1C(=O)CCc1ccccc1` [UVARETIN] gave an EC50 of 3.49 µg/mL.
